# Laboratory results from publication PMC12250893, “Systematic Characterization of In Vitro and In Vivo Metabolic Pathways and Identification of Novel Biomarkers of 26 Synthetic Cannabinoids” (Molecules, 2025).
# Test: Clinical symptoms of rats in metabolic model
# Type: in vivo, rat
# Settings: SD rats, dose 0.05-0.5 mg/kg per Table 6
# Procedure: (§1) Sprague-Dawley male rats (200 ± 20 g) were obtained from SPF (Beijing) Biotechnology Co., Ltd. (Beijing, China). The animals were housed under controlled environmental conditions: Temperature was maintained at 20–25 °C, humidity at 50 ± 10%, and a 12/12 h light/dark cycle was applied. They had ad libitum access to standard laboratory chow and filtered water. A two-week acclimatization period was provided before the experiments began. The 26 SC standards were prepared in normal saline at concentrations of 0.5 mg/mL, 0.1 mg/mL, and 0.05 mg/mL. Each rat was weighed before administration, and the injection dose was adjusted based on body weight. The dosing volume for each rat was maintained at approximately 200 µL.
# (§2) 162 Sprague-Dawley (SD) rats were randomly divided into 27 groups, with six rats in each group. The control group received an injection of normal saline, while the remaining groups were injected with 26 different types of SCs. The dosage administered was determined based on pre-experimental results, specifically selecting the dose that produced the highest level of metabolites in the blood samples collected 1 h after tail vein injection at concentrations of 0.5 mg/kg, 0.1 mg/kg, and 0.05 mg/kg, as shown in Table 6. Subsequently, tail vein administration was conducted at the specified dosage. The orbital venous blood was taken from the outer canthus of the rat with capillaries at 15 min and 1 h. Feces were collected after the blood. The rats were then sacrificed, and their brains and livers were dissected. Samples were immediately frozen in liquid nitrogen and stored at −80 °C until analysis.
row,Structure (SMILES),Animal manifestations after tail vein drug injection
1,COC(=O)C(NC(=O)c1nn(CCCCCF)c2ccccc12)C(C)(C)C (centres unmarked) [5F-ADB],hematuria
2,CC(C)(C)C(NC(=O)c1nn(CC2CCCCC2)c2ccccc12)C(N)=O (centres unmarked) [ADB-CHMINACA],"irritable, with unstable gait and tachypnea"
3,CC1(C)C(C(=O)c2cn(Cc3ccc(F)cc3)c3ccccc23)C1(C)C [FUB-144],hematuria
4,CCCCCn1cc(C(=O)c2ccc3ccccc3c2)cc1-c1ccccc1C [JWH-370],syncope

# Test: Metabolite identification, HLM incubation and rat model combined (UHPLC-Q-Exactive Orbitrap MS)
# Parameters: species or system human; rat
# Settings: characteristic / defining metabolites by the screening criteria
# Procedure: as §1, §2
# For blood samples, 0.5 mL of each sample was mixed with 1.0 mL of acetonitrile. For brain samples, 0.2 g of tissue was combined with 0.5 mL of acetonitrile. For liver samples, 0.5 g of tissue was mixed with 0.5 mL of acetonitrile. For feces samples, 0.2 g of sample was combined with 1 mL of acetonitrile-water (3:1) for grinding and homogenization. Each mixture was sonicated for 40 min, allowed to precipitate at 4 °C for 30 min, and then centrifuged at 13,500 rpm for 10 min. The supernatant was filtered using a syringe filter (0.45 μm) for further testing.
row,Structure (SMILES),Characteristic Metabolite
1,COC(=O)C(NC(=O)c1nn(CCCCCF)c2ccccc12)C(C)(C)C (centres unmarked) [5F-ADB],"Ester hydrolysis, dehydrogenation, and acidification metabolites"
2,CCOC(=O)C(NC(=O)c1nn(CCCCCF)c2ccccc12)C(C)C (centres unmarked) [5F-EMB-PICA],"Ester hydrolysis, amide hydrolysis, and oxidative defluorination metabolite"
3,C=CCCCn1nc(C(=O)NC(C(N)=O)C(C)C)c2ccccc21 (centres unmarked) [AB-4en-PINACA],"Deamination, hydration, and deamidation metabolites"
4,CN1CCCCC1Cn1cc(C(=O)C2C(C)(C)C2(C)C)c2ccccc21 (centres unmarked) [AB-005],"Hydroxylation, de-N-alkyl side chain, dehydrogenation, and dihydroxylation metabolites"
5,CC(C)C(NC(=O)c1nn(Cc2ccc(F)cc2)c2ccccc12)C(N)=O (centres unmarked) [AB-FUBINACA],"Hydrolysis, hydroxylation, and deamination metabolites"
6,C=CCCn1nc(C(=O)NC(C(N)=O)C(C)(C)C)c2ccccc21 (centres unmarked) [ADB-3en-BUTINACA],"Dihydrodiol, deamination, deamination, and hydroxylation metabolites"
7,C=CCCCn1nc(C(=O)NC(C(N)=O)C(C)(C)C)c2ccccc21 (centres unmarked) [ADB-4en-PINACA],"Deamination, hydration, dihydrodiol, and deamination metabolites"
8,CC(C)(C)C(NC(=O)c1nn(CC2CCCCC2)c2ccccc12)C(N)=O (centres unmarked) [ADB-CHMINACA],"Deamination, deamination of N-alkyl side chains, and hydrolytic metabolites"
9,CCCCCCn1nc(C(=O)NC(C(N)=O)C(C)(C)C)c2ccccc21 (centres unmarked) [ADB-HEXINACA],"Deamination, deamidation, amide hydrolysis, and hydroxylation metabolites"
10,CCCCCn1cc(C(=O)NC(C(N)=O)C(C)(C)C)c2cccnc21 (centres unmarked) [ADB-P7AICA],"Hydroxylation, deamination, and dehydrogenation metabolites"
11,CCCCCn1c(C(=O)c2cccc3ccccc23)nc2ccccc21 [BIM-018],"Ketogenic, hydroxylated, and dehydrogenated metabolites"
12,O=C(c1cccc2ccccc12)c1nc2ccccc2n1CCCCCF [BIM-2201],"Oxidative defluorination, dihydrodiol, and hydroxylated metabolite"
13,CC1(C)C(C(=O)c2cn(Cc3ccc(F)cc3)c3ccccc23)C1(C)C [FUB-144],"Ketogenic and hydroxylated, hydroxylated, and dehydrogenated metabolites"
14,CCCCCn1cc(C(=O)c2ccc3ccccc3c2)cc1-c1ccccc1F [JWH-307],"Hydroxylation, ketogenic, and de-N-alkyl side chain metabolites"
15,CCCCCn1cc(C(=O)c2ccc3ccccc3c2)cc1-c1ccccc1C [JWH-370],"Dihydrodiol, hydroxylated, and de-N-alkyl side chain metabolites"
16,C=CCCCn1nc(C(=O)NC(C(=O)OC)C(C)(C)C)c2ccccc21 (centres unmarked) [MDMB-4en-PINACA],"Dihydrodiol, ester hydrolysis, ketogenic, and amide hydrolysis metabolites"
17,CCCCCn1cc(C(=O)C2C(C)(C)C2(C)C)c2ccccc21 [UR-144],"Hydroxylation, de-N-alkyl side chains, and ketogenic metabolites"

# Same assay, conditions: in vitro (HLM) and in vivo (rat) models together
Structure (SMILES),Number of Metabolites,Number of Phase I Metabolites,Number of Phase II Metabolites
COC(=O)C(NC(=O)c1nn(CCCCCF)c2ccccc12)C(C)(C)C (centres unmarked) [5F-ADB],25,17,8
CCOC(=O)C(NC(=O)c1nn(CCCCCF)c2ccccc12)C(C)C (centres unmarked) [5F-EMB-PICA],19,9,10
C=CCCCn1nc(C(=O)NC(C(N)=O)C(C)C)c2ccccc21 (centres unmarked) [AB-4en-PINACA],18,17,1
CN1CCCCC1Cn1cc(C(=O)C2C(C)(C)C2(C)C)c2ccccc21 (centres unmarked) [AB-005],17,12,5
CC(C)C(NC(=O)c1nn(Cc2ccc(F)cc2)c2ccccc12)C(N)=O (centres unmarked) [AB-FUBINACA],19,15,4
C=CCCn1nc(C(=O)NC(C(N)=O)C(C)(C)C)c2ccccc21 (centres unmarked) [ADB-3en-BUTINACA],22,18,4
C=CCCCn1nc(C(=O)NC(C(N)=O)C(C)(C)C)c2ccccc21 (centres unmarked) [ADB-4en-PINACA],30,25,5
CC(C)(C)C(NC(=O)c1nn(CC2CCCCC2)c2ccccc12)C(N)=O (centres unmarked) [ADB-CHMINACA],25,18,7
CCCCCCn1nc(C(=O)NC(C(N)=O)C(C)(C)C)c2ccccc21 (centres unmarked) [ADB-HEXINACA],31,24,7
CCCCCn1cc(C(=O)NC(C(N)=O)C(C)(C)C)c2cccnc21 (centres unmarked) [ADB-P7AICA],40,28,12
CCCCCn1c(C(=O)c2cccc3ccccc23)nc2ccccc21 [BIM-018],27,13,14
O=C(c1cccc2ccccc12)c1nc2ccccc2n1CCCCCF [BIM-2201],29,17,12
CC1(C)C(C(=O)c2cn(Cc3ccc(F)cc3)c3ccccc23)C1(C)C [FUB-144],18,11,7
CCCCCn1cc(C(=O)c2ccc3ccccc3c2)cc1-c1ccccc1F [JWH-307],20,12,8
CCCCCn1cc(C(=O)c2ccc3ccccc3c2)cc1-c1ccccc1C [JWH-370],14,9,5
C=CCCCn1nc(C(=O)NC(C(=O)OC)C(C)(C)C)c2ccccc21 (centres unmarked) [MDMB-4en-PINACA],14,12,2
CCCCCn1cc(C(=O)C2C(C)(C)C2(C)C)c2ccccc21 [UR-144],24,15,9

# Test: Human liver microsomal incubation (in vitro metabolic model)
# Settings: HLM, 37 °C 1 h, then UDPGA 30 min; peak area of parent in experimental group vs degradation control group
# Procedure: Each of the 26 SCs was configured to 1 mg/mL with acetonitrile. The HLMs, NADPH regeneration solution A, regeneration solution B, and UDPGA solution were thawed at 4 °C. An icebox was prepared, and all additional steps were performed on ice. For this, 10 µL of NADPH regeneration solution A, 2 µL of regeneration solution B, 2 µL of SCs standard, and 10 µL of mixed human liver microsomes were added to 176 µL of 0.1 mol/L phosphate buffer. The mixture was mixed thoroughly and incubated at 37 °C for 1 h. Subsequently, 20 µL of UDPGA solution was added and mixed well, followed by an additional incubation for 30 min. The reaction was stopped by adding 200 µL of ice-cold acetonitrile. Additionally, the negative control group and the degradation control group were set up following the same procedure. […] The unadded components were supplemented with an equal amount of phosphate buffer. All samples were centrifuged at a high speed of 13,500 r for 10 min after reaction termination. The supernatant was collected and subsequently passed through a membrane filter (0.45 μm) prior to sampling.
# The samples were separated and analyzed using a UHPLC-Q-Exactive Orbitrap MS system (Thermo Fisher Scientific, Waltham, MA, USA), which comprised a Thermo-Scientific™ Q-Exactive™(Thermo Fisher Scientific, Waltham, MA, USA) quadrupole electrostatic field orbitrap mass spectrometer coupled to a Vanquish ultrahigh-performance liquid chromatography (UHPLC) system (Thermo Fisher Scientific, Waltham, MA, USA) with a heated electrospray ionization HESI source in the positive ionization mode. The samples were separated on an ACQUITY UPLC BEH C18 Column (100 × 2.1 mm, 1.7 μm) with the column temperature maintained at 30 °C. The chromatographic separation was achieved using a gradient elution program with mobile phase A consisting of 0.1% formic acid in water and mobile phase B containing 0.1% formic acid in acetonitrile. The gradient profile was programmed as follows: Initial conditions were maintained at 5% B from 0 to 1 min, followed by a linear increase to 95% B from 1 to 11 min; the 95% B composition was held from 11 to 15.5 min, then decreased back to 5% B from 15.5 to 16 min, and finally maintained at 5% B from 16 to 18 min. The flow rate was set at 0.3 mL/min, and the injection volume was 10 μL for all analyses.
# The following HESI source conditions were adopted: Acquisition mode was set to positive ion mode; the capillary temperature was maintained at 325 °C, the auxiliary gas heater temperature was set to 350 °C, and the spray voltage was applied at 3.7 kV. The mass spectrometry analysis was carried out in full-scan (FS) mode to trigger data-dependent acquisition in tandem mass spectrometry (FS-ddMS^2) mode. The FS data acquisition was performed using the following parameters: a resolution of 60,000, an automatic gain control (AGC) target of 1 × 10^6, a scan range of m/z 66.7–1000, and a maximum injection time (IT) of 250 ms. The ddMS^2 data acquisition was performed using the following parameters: a resolution of 30,000; an automatic gain control (AGC) target of 1 × 10^5; normalized collision energies (NCEs) of 20, 40, and 70 eV; and a maximum injection time (IT) of 50 ms.
# Data acquisition was executed utilizing Xcalibur 4.3 software (Thermo Fisher Scientific, Waltham, MA, USA). The subsequent analysis of the acquired data was conducted using Thermo Fisher Scientific […] 3.2 software (Thermo Fisher Scientific, Waltham, MA, USA). The workflow’s nodes employed specific parameters: a mass tolerance of 5 ppm, a signal-to-noise threshold of 3, a minimum peak intensity of 1 × 10^5, a maximum peak width of 0.8 min, and a minimum of 3 scans per peak.
row,Structure (SMILES),Conversion Rate [%]
1,COC(=O)C(NC(=O)c1nn(CCCCCF)c2ccccc12)C(C)(C)C (centres unmarked) [5F-ADB],88.1
2,CCOC(=O)C(NC(=O)c1nn(CCCCCF)c2ccccc12)C(C)C (centres unmarked) [5F-EMB-PICA],80.6
3,C=CCCCn1nc(C(=O)NC(C(N)=O)C(C)C)c2ccccc21 (centres unmarked) [AB-4en-PINACA],98.7
4,CN1CCCCC1Cn1cc(C(=O)C2C(C)(C)C2(C)C)c2ccccc21 (centres unmarked) [AB-005],60.9
5,CC(C)C(NC(=O)c1nn(Cc2ccc(F)cc2)c2ccccc12)C(N)=O (centres unmarked) [AB-FUBINACA],74.6
6,C=CCCn1nc(C(=O)NC(C(N)=O)C(C)(C)C)c2ccccc21 (centres unmarked) [ADB-3en-BUTINACA],98.7
7,C=CCCCn1nc(C(=O)NC(C(N)=O)C(C)(C)C)c2ccccc21 (centres unmarked) [ADB-4en-PINACA],18.2
8,CC(C)(C)C(NC(=O)c1nn(CC2CCCCC2)c2ccccc12)C(N)=O (centres unmarked) [ADB-CHMINACA],62.8
9,CCCCCCn1nc(C(=O)NC(C(N)=O)C(C)(C)C)c2ccccc21 (centres unmarked) [ADB-HEXINACA],24.8
10,CCCCCn1cc(C(=O)NC(C(N)=O)C(C)(C)C)c2cccnc21 (centres unmarked) [ADB-P7AICA],42.9
11,CCCCCn1c(C(=O)c2cccc3ccccc23)nc2ccccc21 [BIM-018],93.7
12,O=C(c1cccc2ccccc12)c1nc2ccccc2n1CCCCCF [BIM-2201],90.2
13,CC1(C)C(C(=O)c2cn(Cc3ccc(F)cc3)c3ccccc23)C1(C)C [FUB-144],30.4
14,CCCCCn1cc(C(=O)c2ccc3ccccc3c2)cc1-c1ccccc1F [JWH-307],55.2
15,CCCCCn1cc(C(=O)c2ccc3ccccc3c2)cc1-c1ccccc1C [JWH-370],42.0
16,C=CCCCn1nc(C(=O)NC(C(=O)OC)C(C)(C)C)c2ccccc21 (centres unmarked) [MDMB-4en-PINACA],69.7
17,CCCCCn1cc(C(=O)C2C(C)(C)C2(C)C)c2ccccc21 [UR-144],30.5
